These results are taken from patent US5317019A, “Inhibition of interleukin-1 and tumor necrosis factor production by monocytes and/or macrophages” (priority 1991, dated 1994).

The term IC50 denotes the concentration that inhibits the measured activity by half.

Where only a bound is given, the exact number is not on record here.

The test system of test [1] is TNF production by human monocytes. Description: In vitro TNF production by LPS-stimulated human monocytes (ELISA). In kind it is cell-based. The following applies: Homo sapiens, Monocyte; Table B; LPS 50 ng/ml, 24 h; read-out: IC50, LPS induced TNF human monocyte data. On the procedure:
The effects of the compounds enumerated above on the in vitro production of TNF by human monocytes was examined using the following protocol.
Bacterial lipopolysaccharide (LPS) was used to induce TNF production by human peripheral blood monocytes. TNF activity was measured by a modification of Winston et al., ELISA, described below. […] The cells were allowed to adhere for 2 hours, after which time non-adherent cells were removed by gentle washing. […] At the end of the incubation period, culture supernatants were removed and clarified of cells and all debris. Culture supernatants were immediately assayed for TNF levels in the manner described below.
The Elisa employes a murine monoclonal anti-human TNF antibody, described below, as the capture antibody and a polyclonal rabbit anti-human TNF, described below, as the second antibody. […] TNF levels in samples were calculated from a standard curve genereated with recombinant human TNF produced in E. Coli (obtained from SmithKIine Beecham Pharmaceuticals, King of Prussia, Pa., USA).
Polyclonal rabbit anti-human TNF antibodies were prepared by repeated immunization of New Zeland White (NZW) rabbits with recombinant human TNF emulsified in complete Freund's adjuvant (DEFCO, Ill., USA).
A general note: ELISA stands for enzyme-linked immunosorbent assay.

Test [2] relates to endotoxin shock in mice. Description: In vivo endotoxin shock models (P. acnes and/or LPS-GAL). Set-up: species or system mouse (C57BL/6). The following applies: one or both in vivo models. From the text: (§1) Two models of endotoxin shock have been utilized to determine in vivo TNF activity and are described below. The actual protocol used in the models is described in Utility Model Examples A and B set out below, i.e. P. acnes model and LPS-GAL model.
The protocol used to test the compound of the method of the subject invention was essentially as has been described in Galanos et al., Proc. Nat'l Acad. Sci USA, 76:5939-43 (1979) whose disclosure is herein incorporated by reference. Briefly, D-gal […] sensitizes various strains of mice to the lethal effects of endotoxin. The administration of D-gal (300-500 mg/kg) intravenously (i.v.) sensitizes the mice to doses of Lipopolysaccharide(LPS ) as low as 0.1 mg. Briefly, male C57BL/6 mice, obtained from Charles River Laboratories (Stone Ridge, N.Y., USA) of 6-12 weeks of age were injected i.v. with 0.1 mg of LPS from Salmonella typhosa (Difco Laboratories, Detroit, Mich., USA) admixed with D(+)-gal (Sigma; 500 mg/kg) in 0.20-0.25 ml pyrogen-free saline. Compounds to be tested were administered at various times prior to or following the i.v. injection of LPS/D-gal. In this model, the control animals usually die 5-6 hr. following the injection of LPS, although on occasion deaths are seen between 24 and 48 hr.
(§2) This model is a modification of the previously described protocol for the in vivo induction of TNF as described in Haranaka et al., Cancer Immunol Immunother. 18:81-90, (1984). Treatment with Proprionibacterium Acnes (P. acnes) (1 mg/animal i.p.) renders mice susceptible to the lethal effects of LPS injected 10 days later.
P. acnes was purchased from Burroughs Wellcome (Triangle Park, N.C., USA), and […] of the heat-killed bacteria was administered in 0.5 ml pyrogen-free saline by intraperitoneal (i.p.) injection to male C57BL/6 mice, obtained from Charles River Laboratories (Stone Ridge, N.Y., USA) of 6-12 weeks of age. Ten days later, the mice were injected i.v. with 1 mg LPS in 0.25 ml saline. Compounds to be tested were administered at various times prior to or following the injection of LPS. The survival of animals was monitored for 1 week.
Plasma levels of TNF were measured using a modification of the basic sandwich ELISA method described in Winston et al., Current Protocols in Molecular Biology, Pg. 11.2.1, Ausubel et al., Ed. (1987) John Wiley and Sons, New York, USA. The Elisa employed a hampster monoclonal anti-mouse TNF (Genzyme, Boston, Mass., USA ) as the capture antibody and a polyclonal rabbit anti-murine TNF (Genzyme, Boston, Mass., USA ) as the detecting antibody. TNF levels in rat samples were calculated from a standard curve generated with recombinant murine TNF (Genzyme, Boston, Mass., USA). TNF levels determined by ELISA correlated with levels detected by the L929 bioassay of Ruff et. al., J. Immunol. 125:1671-1677 (1980), with 1 Unit of activity in the bioassay corresponding to 70 picograms (pg) of TNF in the ELISA. The ELISA detected levels of TNF down to 25 pg/ml.

In test [3] the test system is IL-1 production by human monocytes. Description: In vitro IL-1 production by LPS-stimulated human monocytes. Type of test: cell-based. The following applies: Homo sapiens, Monocyte; Table 1; LPS 50 ng/ml, 24 h; read-out: IC50, effect on LPS-stimulated IL-1 production by human monocytes. On the procedure:
Bacterial lipopolysaccharide (LPS) was used to induce IL-1 production by human peripheral blood monocytes. IL-1 activity was measured by its ability to stimulate a Interleukin 2 (IL-2) producing cell line […] to secrete IL-2, in concert with A23187 ionophore, according to the method of Simon et al., J. Immunol. […] The cells were allowed to adhere for 2 hours, after which time non-adherent cells were removed by gentle washing. […] At the end of the incubation period, culture supernatants were removed and clarified of cells and all debris.

In test [4] the test system is arachidonic acid-induced mouse ear swelling. Description: Arachidonic acid-induced mouse ear swelling (p.o.). In kind it is in vivo. The following applies: 50 mg/kg p.o.; *** p less than 0.001. As to the method:
^a Mouse ear edema was measured as described in Griswold et al.,
Inflammation, II(2), 189-199 (1987), the disclosure of which is hereby
incorporated by reference.

Test [5] deals with IL-1 production by human monocytes. The following applies: literature (Lee et al.); in words; cited from earlier work.
The subject of test [6] is 5-lipoxygenase. The following applies: literature (Lee et al.); cited from earlier work.
In test [7] the test system is cyclooxygenase. The following applies: literature (Lee et al.); cited from earlier work.
Test [8] deals with arachidonic acid-induced inflammation. The following applies: literature (Griswold et al.); cited from earlier work.
The subject of test [9] is serum TNF in P. acnes-sensitized mice. Description: P. acnes/LPS endotoxin shock model, serum TNF. The following applies: P. acnes/LPS treated mice, oral dosage, FIG. 1. In kind it is in vivo, mouse (C57BL/6).
Source text: as §1
Endotoxin Shock in P. acnes-Sensitized Mice
as §2
P. acnes was purchased from Burroughs Wellcome (Triangle Park, N.C., USA), and […] of the heat-killed bacteria was administered in 0.5 ml pyrogen-free saline by intraperitoneal (i.p.) injection to male C57BL/6 mice, obtained from Charles River Laboratories (Stone Ridge, N.Y., USA) of 6-12 weeks of age. […] The survival of animals was monitored for 1 week.
Plasma levels of TNF were measured using a modification of the basic sandwich ELISA method described in Winston et al., Current Protocols in Molecular Biology, Pg. […] TNF levels in rat samples were calculated from a standard curve generated with recombinant murine TNF (Genzyme, Boston, Mass., USA). TNF levels determined by ELISA correlated with levels detected by the L929 bioassay of Ruff et. al., J. Immunol. […]

In test [10] the test system is endotoxin shock in D-gal-sensitized mice. Description: LPS-GAL endotoxin shock model (D-gal-sensitized mice). Type of test: in vivo, mouse (C57BL/6).
Source text: as §1
Endotoxin Shock in D-gal-Sensitized Mice
The protocol used to test the compound of the method of the subject invention was essentially as has been described in Galanos et al., Proc. Nat'l Acad. Sci USA, 76:5939-43 (1979) whose disclosure is herein incorporated by reference. Briefly, D-gal […] sensitizes various strains of mice to the lethal effects of endotoxin. The administration of D-gal (300-500 mg/kg) intravenously (i.v.) sensitizes the mice to doses of Lipopolysaccharide(LPS ) as low as 0.1 mg. […]
Plasma levels of TNF were measured using a modification of the basic sandwich ELISA method described in Winston et al., Current Protocols in Molecular Biology, Pg. […] TNF levels in rat samples were calculated from a standard curve generated with recombinant murine TNF (Genzyme, Boston, Mass., USA). TNF levels determined by ELISA correlated with levels detected by the L929 bioassay of Ruff et. al., J. Immunol. […] The ELISA detected levels of TNF down to 25 pg/ml.

For the compound `O=S1(=O)CCn2c1nc(-c1ccc(F)cc1)c2-c1ccncc1` [Compound J, 6-(4-Fluorophenyl)-5-(4-pyridyl)-2,3-dihydroimidazo[2,1-b]thiazole-1,1-dioxide], the IC50 in test [1] worked out at 9 µM. For the same compound, in [2], the “Inhibition of in vivo TNF levels / in vivo activity” value is listed as “inhibited in vivo TNF levels” and the “Protection from lethal effects of endotoxin shock” value (“Protection from lethal effects” below) is reported as “protected the animals from endotoxic induced shock”.
For `CC[S+]([O-])c1ccc(-c2nc3n(c2-c2ccncc2)CCC3)cc1` (stereo not drawn) [Compound 4], in test [3], the IC50 is more than 10000 nM. The “Percent inhibition of arachidonic acid-induced mouse ear swelling” value (“Percent inhibition” below) in test [4] came out at 41%. Besides, in [1], the IC50 turned out to be 7 µM. Also, in test [2], the “Inhibition of in vivo TNF levels / in vivo activity” value is on record as “inhibited in vivo TNF levels” and the “Protection from lethal effects” value is reported as “protected the animals from endotoxic induced shock”.
`Cc1cc(-c2c(-c3ccc([S+](C)[O-])cc3)nc3n2CCC3)ccn1` (stereo not drawn) [Compound 6, 2-(4-methylsulfinylphenyl)-3-(4-(2-methyl)-pyridyl)-6,7-dihydro-[5H]-pyrrolo-[1,2-a]-imidazole]: the IC50 in test [3] was more than 10000 nM. Moreover, the “Percent inhibition” value in test [4] turned out to be 59%.
Turning to `CC(Cc1ccc(O)c(O)c1)C(C)Cc1ccc(O)c(O)c1` (stereo not drawn) [nordihydroguaiaretic acid], the “Inhibition of IL-1 production by LPS-stimulated human monocytes” value in test [5] is “with the exception of nordihydroguaiaretic acid, were inactive”.
As to `CCSc1ccc(-c2nc3n(c2-c2ccncc2)CCC3)cc1` [Compound 3], in test [3], the IC50 came to 2000 nM. Also, in [4], the “Percent inhibition” value turned out to be 56%.
With `CSc1ccc(-c2nc3n(c2-c2ccnc(C)c2)CCC3)cc1` [Compound 5, 2-(4-methylthiophenyl)-3-(4-(2-methyl)pyridyl)-6,7-dihydro-[5H]-pyrrolo-[1,2-a-]-imidazole], in test [3], the IC50 was determined as 2700 nM. Also, the “Percent inhibition” value in test [4] is given as 59%. In addition, the IC50 in test [1] worked out at 7 µM. In [2], the “Inhibition of in vivo TNF levels / in vivo activity” value is reported as “inhibited in vivo TNF levels” and the “Protection from lethal effects” value was “protected the animals from endotoxic induced shock”.
With `Fc1ccc(-c2nc3n(c2-c2ccncc2)CCS3)cc1` [5-(4-pyridyl)-6(4-fluorophenyl)-2,3-dihydroimidazo(2,1-b)thiazole], the “Inhibition of IL-1 production by LPS-stimulated human monocytes” value in test [5] is on record as “potent inhibitor of IL-1 production”. Besides, in test [6], the “Inhibition of 5-lipoxygenase-mediated arachidonate metabolism” value is given as “inhibits”. The “Inhibition of cyclooxygenase-mediated arachidonate metabolism” value in [7] was “inhibits”. For the same compound, the “Effects on the edematous and cellular component of arachidonic acid-induced inflammation” value in test [8] is on record as “inhibitory effects”.
Regarding `CSc1ccc(-c2nc3n(c2-c2ccncc2)CCC3)cc1` [Compound 1, 2-(4-methylthiophenyl)-3-(4-pyridyl)-6,7-dihydro-[5H]-pyrrolo-[1,2-a-]-imidazole], the IC50 in test [3] was found to be 2000 nM; in test [1], 1 µM. The “Percent inhibition” value in [4] is 56%.
`C[S+]([O-])c1ccc(-c2nc3n(c2-c2ccncc2)CCC3)cc1` (stereo not drawn) [Compound 2, 2-(4-methylsulfinylphenyl)-3-(4-pyridyl)-6,7-dihydro-[5H]-pyrrolo-[1,2-a]-imidazole]: the IC50 in [3] was more than 10000 nM. The “Percent inhibition” value in test [4] came out at 44%. The IC50 in [1] is more than 10 µM. In test [9], the “Reduction in serum / in vivo TNF levels” value was “decreased levels of in vivo TNF relative to increased oral dosage”. In addition, the “Reduction of serum TNF levels” value in test [10] (100 mg/kg, FIG. 3) is recorded as “reduction of serum TNF levels”. Moreover, the “Survival rate of animals with endotoxic shock” value in test [10] (FIG. 4, control group 30%) is 100%. In addition, in test [2], the “Inhibition of in vivo TNF levels / in vivo activity” value was “in vivo activity” and the “Protection from lethal effects” value is given as “protection from the lethal effects of endotoxin shock”.
